The source of these data is patent US20110229572A1, “DELIVERY OF DRUG COMBINATIONS” (BIOCOMPATIBLES UK Limited, priority 2007, published 2011).

Like-named read-outs stand apart in the source and are kept apart here. Bounds are passed on as bounds.

For series [1] the following is noted: cited from earlier work.
The conditions of series [2]: P-4135F, cited from earlier work.
For series [3] the following is noted: cited from earlier work. The source holds these as a separate data set.
A short description of series [4]: Loading of doxorubicin and irinotecan into the same high AMPS beads (depletion, UV). The series is classed as physicochemical. The following applies: 1 ml high AMPS beads. As to the method: Five samples of 500-700 μm High AMPS beads of Example 1 were loaded with doxorubicin and irinotecan following different approaches:
Sample 1: 3.5 mL of irinotecan solution (Campto, Pfizer, 20 mg.mL^−1=70 mg) was loaded into 1 mL of beads for 48 h, to saturate all the sulfonate groups. Then, the depleted solution was removed and the loaded beads were washed with a known volume of deionised water to remove the non-bound drug. The amount of irinotecan loaded into the beads was calculated by depletion, as a difference between the initial and final amounts in the depleted solution and all washings measured by UV at a wavelength of 369 nm. One mL of doxorubicin (Dabur oncology-25 mg.ml^−1) was later added to the same beads and the loading profile determined. […] All solutions were measured by UV at a wavelength of 483 nm wavelength and the amount of drug loaded into the beads determined by depletion. After the beads were loaded and washed with deionised water, in a second step, 1.25 ml of irinotecan solution (20 mg.mL^−1=25 mg) was added to the same beads and the loading profile determined. […]
To determine the loading profiles of all samples, an aliquot of 50 μl was removed from each vial at time 5, 15, 30, 45 min after the addition of each drug, diluted as necessary and read by UV at 483 and 369 nm. […]

A short description of series [5]: Loading of doxorubicin into ibuprofen-loaded low AMPS beads (depletion). The series is classed as physicochemical.
Procedure: Ibuprofen and doxorubicin solutions were loaded into low AMPS beads simultaneously. In order to achieve this, one sample of 1 ml of 500-700 μm beads was loaded with ibuprofen (according to examples in WO2004073688). The excess packaging solution was removed using a Pasteur pipette and 2 ml of doxorubicin solution (5 mg.ml^−1) were added. After 24 h, a 50 μl aliquot was removed from the depleted solution and measured by UV at 263 nm and 483 nm. The amount of doxorubicin loaded into beads was calculated by depletion, as a difference between the initial and final amounts in the depleted solution (calculations explained below).
These two assumptions were made for all calculations. All samples were read at both wavelengths (263 nm and 483 nm). Using the absorbance at 483 nm the concentration of doxorubicin in each sample was calculated, then using these concentrations and the standard curve of doxorubicin at 263 nm, the absorbance of doxorubicin at 263 nm was calculated. By subtracting this value from the total absorbance at 263 nm, the concentration of ibuprofen, was calculated using the ibuprofen standard curve.
Initially, lyophilised beads as described in WO2004073688 were loaded with ibuprofen/ethanol solution by solvent evaporation and then rehydrated with water and autoclaved for 15 min at 121° C. […]
Series [6] can be described thus: Elution of doxorubicin and irinotecan from the same beads into 200 ml PBS. The series is classed as physicochemical. The following applies: all samples. On the procedure: After being sized, all samples were eluted. Here, the remaining loading solutions were removed using a Pasteur pipette and the loaded beads were transferred to brown flasks containing 200 ml of PBS (Inverclyde Biologicals). At time 5, 15, 30, 45, 60, 90 min, 2 h, 4 h and 24 h, an aliquot of elution medium (4 ml) was removed and replaced with 4 mL of fresh PBS to maintain the volume. All samples were read by UV at 483 and 369 nm wavelengths, using the corresponding standard curves to calculate the amount eluted at each time point.
These two assumptions were made for all calculations. All samples were read at both 483 nm and 369 nm wavelengths. Using the absorbance and the standard curve of doxorubicin at 483 nm, the concentration of doxorubicin in each sample was calculated and using these concentrations and the standard curve of doxorubicin at 369 nm, the absorbance of doxorubicin at this wavelength was calculated.

Series [7] is described as follows: Rapamycin and doxorubicin loading into high AMPS beads by two methods. The following applies: Method 2. The series is classed as physicochemical. On the procedure:
Unloaded high AMPS bead slurry 1 ml was loaded with doxorubicin solution (5 ml of 10.07 mg/ml, target loading 50 mg/ml Bead) overnight. The doxorubicin-loaded beads were washed with 1 ml DMSO 5 times to remove extra water, and 1 ml 60 mg/mL rapamycin DMSO solution was mixed with the doxorubicin beads for about 30 min. Subsequently, following removal of extra rapamycin DMSO solution, the beads were washed with 5 ml saline until no white drug particles were observed.
1 ml Bead slurry was washed with 1 mL DMSO 5 times and mixed with 1 ml 60 mg/ml rapamycin DMSO solution for 30 min. The loaded beads were then washed with 5 ml saline until no further white drug particles were observed. […]
Doxorubicin loading test: The doxorubicin loading was measured by depletion method in either water or DMSO solution. The loading solution was taken and diluted 10 times and measured by UV at 483 nm to determine the concentration of doxorubicin residue in solution. […] The concentration of rapamycin was determined by UV at 279 nm. […]
Doxorubicin loss determination: The doxorubicin loss during DMSO washing of loaded beads before further loading of rapamycin (Method 2) was determined by measuring the accumulated DMSO washing solution in a volumetric flask at 483 nm. […]
Rapamycin and doxorubicin standard curve: The maximum absorbance of rapamycin is at wavelength 279 nm, which is overlapped with doxorubicin absorbance. […]

Another series concerns HepG2 cells. Nature of the series: MTS cell viability assay with drug loaded beads. The series is classed as cell-based, human. The following applies: Example 8, MTS, 72 hr exposure. As to the method:
An MTS assay was also conducted on the wells. At 72 hrs, the media from all wells was cautiously removed and each well washed three times with 200 μl sterile PBS. After adding 100 μl PRF media to each well, 20 μl of the prepared MTS solution (Promega) was also added. After a two hours incubation (37° C., 5% CO2) the plate was read at 490 nm using the plate reader and like the LDH assay, if the reading was too high the samples were diluted (75 μl PRF media: 75 μl samples).
Example 7 was repeated substantially as described, with an extended number of beads of one of the drugs. The results of the MTS assay, i.e. showing cell viability % (log scale) of HepG2 cells after 72 hr exposure, concluded as the mean of 6 samples, is shown in FIG. 19.
An MTS assay was used to assess the synergistic cytotoxic effects of dual loaded beads on HepG2 and PSN1 cells. The rapamycin loaded beads and the doxorubicin loaded beads were the same as those described in Example 7. The dual loaded doxorubicin and rapamycin loaded beads were loaded and analysed as described in Example 4 Method 2 using a 1 ml 60 mg/ml rapamycin solution and 1 ml 37.5 mg/ml doxorubicin solution.
The assay was prepared as described in Example 7 using HepG2 cells and additional plates of PSN1 cells for analysis.
An MTS assay (described in example 7) was conducted after 24, 48 and 72 hrs exposure. […]
On the technique in general: Tetrazolium assays rely on reduction of a dye to a coloured formazan, in cell work by metabolically active cells.

The nature of series [8]: Elution of ibuprofen-irinotecan-loaded beads into PBS. The series is classed as physicochemical. The following applies: after 5 hours, irinotecan alone, combination comparable. On the procedure:
The elution of ibuprofen-irinotecan-loaded beads was carried out by mixing 0.24 ml beads with 200 ml PBS (Inverclyde, Bellshill, UK) and roller-mixed on a roller mixer. At certain time point, the solution (5 ml) was taken out for concentration determination by UV and same volume of fresh PBS was added to keep a sink condition.

Series [9] can be described thus: Ibuprofen and irinotecan loading into high AMPS beads. The series is classed as physicochemical. On the procedure: Drug loading: The drug loading procedure is shown in FIG. 9, in which the unloaded high AMPS beads were washed with DMSO to remove the water trapped within the hydrogel. A mixture of ibuprofen solubilised in DMSO and castor oil as crystallisation inhibitor were subsequently mixed with the bead slurry, and kept for about 10 minutes. Following the removal of the loading solution, saline was used to wash the loaded beads until no drug particles nor large oil droplets were observed. The irinotecan loading was achieved by simply mixing the ibuprofen-loaded beads with irinotecan solution (10 mg/mL) by roller-mixing overnight. The final loaded beads were kept in the water solution as product.
1). Ibuprofen. The content of loaded ibuprofen was determined by an HPLC method. […] The collected DMSO solution was topped to the mark in a 10 ml volumetric flask, and the concentration of ibuprofen was measured by HPLC. […] The content of irinotecan in loaded beads was measured by depletion method. […] The loading solution was diluted with water and measured by UV at 369 nm. Compared to the standard curve, the concentration of irinotecan left in loading solution can be calculated.
To determinate the concentration of each component in a combined drug solution, the standard curves for absorption of predetermined concentrations of ibuprofen and irinotecan at 263, 272 and 369 nm in water were measured. […]

The conditions of series [10]: cited from earlier work. The source holds these as a separate data set.

Turning to `Nc1nc2c(c(=O)[nH]1)N(C=O)C(CNc1ccc(C(=O)N[C@@H](CCC(=O)O)C(=O)O)cc1)CN2` (some centres unmarked) [LV, leucovorin], the values for the encapsulation rate in series [1] (Eudragit P-4135F) and in [1] (Eudragit RS100) were 55.4±2.7% and 81.4±8.6%, respectively. Also, the initial drug loss entry in series [2] (pH 6.8) was “about 60%”. Besides, the “time to complete release” value in series [2] (pH 6.8) is recorded as not above 2 h.

As to `O=c1[nH]cc(F)c(=O)[nH]1` [Sample 5-FU, 5-fluorouracil], the encapsulation rate in series [1] (Eudragit P-4135F) is given as 48.3±2.0%; in [1] (Eudragit RS100), 60.3±9.7%. The encapsulation efficiency is recorded as 19% in [3] (PLGA microparticles) and 30% in series [3] (encapsulated with Paclitaxel). Further, the 5-FU release entry in series [2] (pH 6.8, within 4 h) is given as “lower than 25%”. Also, the “time of nearly immediate release” value in series [2] (pH 7.4) is given as not above 15 min.

Turning to `COc1cccc2c1C(=O)c1c(O)c3c(c(O)c1C2=O)C[C@@](O)(C(=O)CO)C[C@@H]3O[C@H]1C[C@H](N)[C@H](O)[C@H](C)O1` [doxorubicin], the “maximum loading capacity of the beads” value in series [4] is reported as approximately 40 mg. For the same compound, the “maximum amount of doxorubicin loaded into ibuprofen loaded beads” value in series [5] (1 ml low AMPS beads, doxorubicin solution 5 mg/ml, 24 h) is listed as 8.3 mg. For the same compound, the “maximum capacity of low AMPS beads for doxorubicin” value in series [5] (loaded with this drug alone) is approximately 14 mg/mL. For the same compound, in series [6] (in 24 h), the doxorubicin released was less than 25%. Moreover, the “doxorubicin loss during DMSO washing before rapamycin loading” value in [7] is “about 6.71 mg/ml”. The “cytotoxicity when eluted individually” value with HepG2 cells is given as “more cytotoxic to the cells than rapamycin”.

Turning to `CCc1c2c(nc3ccc(OC(=O)N4CCC(N5CCCCC5)CC4)cc13)-c1cc3c(c(=O)n1C2)COC(=O)[C@]3(O)CC` [irinotecan], the “maximum loading capacity of the beads” value in series [4] is listed as 52 mg. Moreover, the irinotecan eluted in [8] is on record as approximately 100%. In series [9], the “maximum irinotecan loading capacity for unloaded beads” value was in the range of 50 to 60 mg/mL. In series [9] (unloaded beads, below maximum loading capacity), the irinotecan loading efficiency result is listed as “above 98%”. In addition, the irinotecan released in series [6] (in <4 h) was more than 99 % mg.

Take heparin: the “initial burst release from the co-matrix” value in series [10] (uncoated) is recorded as 32.7%; in series [10] (with polyethylene glycol coatings, for 24 hr), 25.4%.
